# Data published in publication PMC7159882, “Polyunsaturated fatty acid analogues differentially affect cardiac NaV, CaV, and KV channels through unique mechanisms” (eLife, 2020).
# Experiments:
# Format in all cases: cell-based
# Nav1.5/β1 = molecular target: T1, Nav1.5/β1 (Homo sapiens, UniProt Q14524); test: Two-electrode voltage clamp of Nav1.5/β1 expressed in Xenopus oocytes; details: for INa I/I0: relative current at 0 mV
# T1 construct: Nav1.5 (UniProt: Q14524.1); expressed in transfected cells; host or cells: Xenopus laevis oocytes (cRNA injection, Nav1.5:β1 2:1 by weight)
# T1 sequence (Q14524 whole entry): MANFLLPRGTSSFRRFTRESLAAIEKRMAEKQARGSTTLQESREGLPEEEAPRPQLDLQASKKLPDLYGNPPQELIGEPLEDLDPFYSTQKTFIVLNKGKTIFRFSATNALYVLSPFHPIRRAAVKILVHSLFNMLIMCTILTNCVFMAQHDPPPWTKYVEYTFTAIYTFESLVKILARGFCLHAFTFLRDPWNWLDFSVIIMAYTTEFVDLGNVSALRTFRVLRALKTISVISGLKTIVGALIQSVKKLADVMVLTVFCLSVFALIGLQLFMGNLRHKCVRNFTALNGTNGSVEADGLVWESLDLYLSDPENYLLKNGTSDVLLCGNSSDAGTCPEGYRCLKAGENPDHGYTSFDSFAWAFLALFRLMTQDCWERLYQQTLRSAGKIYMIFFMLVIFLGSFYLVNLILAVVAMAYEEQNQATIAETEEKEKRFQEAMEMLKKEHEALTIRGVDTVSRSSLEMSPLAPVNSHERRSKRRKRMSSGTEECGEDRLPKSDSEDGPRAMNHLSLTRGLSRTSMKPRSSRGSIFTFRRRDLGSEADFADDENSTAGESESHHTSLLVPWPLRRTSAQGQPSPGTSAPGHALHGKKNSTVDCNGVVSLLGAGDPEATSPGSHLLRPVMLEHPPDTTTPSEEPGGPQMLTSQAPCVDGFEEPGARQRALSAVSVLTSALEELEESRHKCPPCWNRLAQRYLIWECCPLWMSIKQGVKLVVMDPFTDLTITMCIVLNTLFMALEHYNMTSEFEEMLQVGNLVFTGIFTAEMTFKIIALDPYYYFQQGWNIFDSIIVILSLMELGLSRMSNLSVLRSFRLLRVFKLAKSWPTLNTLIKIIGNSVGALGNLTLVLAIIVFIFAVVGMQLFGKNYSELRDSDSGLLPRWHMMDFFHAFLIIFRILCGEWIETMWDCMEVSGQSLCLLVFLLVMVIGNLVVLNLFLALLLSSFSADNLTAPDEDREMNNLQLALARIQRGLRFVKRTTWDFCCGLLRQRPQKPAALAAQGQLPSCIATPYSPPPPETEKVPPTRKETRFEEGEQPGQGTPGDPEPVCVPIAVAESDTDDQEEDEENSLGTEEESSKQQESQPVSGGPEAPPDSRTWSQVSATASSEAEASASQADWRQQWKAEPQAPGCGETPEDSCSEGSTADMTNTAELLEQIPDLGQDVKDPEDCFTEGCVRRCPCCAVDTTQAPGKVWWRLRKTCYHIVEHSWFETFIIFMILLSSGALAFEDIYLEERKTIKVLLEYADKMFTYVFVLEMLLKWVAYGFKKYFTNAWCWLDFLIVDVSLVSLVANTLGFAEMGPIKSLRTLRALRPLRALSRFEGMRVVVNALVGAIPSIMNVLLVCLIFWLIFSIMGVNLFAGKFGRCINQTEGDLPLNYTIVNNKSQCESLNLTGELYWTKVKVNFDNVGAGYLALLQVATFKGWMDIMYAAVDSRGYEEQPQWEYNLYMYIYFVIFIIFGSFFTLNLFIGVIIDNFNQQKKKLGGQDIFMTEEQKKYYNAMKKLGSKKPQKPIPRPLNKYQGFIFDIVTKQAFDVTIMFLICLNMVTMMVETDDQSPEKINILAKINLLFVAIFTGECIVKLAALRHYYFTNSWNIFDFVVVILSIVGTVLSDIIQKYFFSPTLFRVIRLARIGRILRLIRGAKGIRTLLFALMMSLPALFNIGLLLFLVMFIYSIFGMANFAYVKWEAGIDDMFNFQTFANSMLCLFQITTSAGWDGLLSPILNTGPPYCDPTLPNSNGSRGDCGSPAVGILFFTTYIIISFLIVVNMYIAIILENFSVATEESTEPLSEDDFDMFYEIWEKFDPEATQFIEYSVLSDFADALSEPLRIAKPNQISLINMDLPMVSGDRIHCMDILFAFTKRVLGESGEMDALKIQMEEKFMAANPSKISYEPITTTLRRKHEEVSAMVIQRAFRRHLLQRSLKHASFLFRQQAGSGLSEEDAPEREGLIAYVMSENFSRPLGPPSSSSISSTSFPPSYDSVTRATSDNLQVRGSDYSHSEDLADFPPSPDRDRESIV
# T1 sequence (Q07699 19-218 partner): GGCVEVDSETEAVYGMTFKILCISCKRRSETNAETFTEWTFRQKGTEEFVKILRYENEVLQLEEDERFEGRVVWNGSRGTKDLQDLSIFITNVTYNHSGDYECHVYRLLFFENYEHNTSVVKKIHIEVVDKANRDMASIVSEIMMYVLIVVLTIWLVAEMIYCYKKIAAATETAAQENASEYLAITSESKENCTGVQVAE
# Method: (§1) Molecular Biology cRNA encoding Kv7.1 (UniProt: P51787), KCNE1 (UniProt: P15382.1), Nav1.5 (UniProt: Q14524.1), Nav β1 (UniProt: […]), Nav β3 (UniProt: […]), Cav1.2 (GenBank: CAA84346), Cav β3 (Uniprot: P54286), Cav β2 (Uniprot: P54288), and Cav α2δ (Uniprot: P13806) were transcribed using the mMessage mMachine T7 kit (Ambion). 50 ng of cRNA was injected into defolliculated Xenopus laevis oocytes (Ecocyte, Austin, TX): For Kv7.1/KCNE1 channel expression, we injected a 3:1, weight:weight (Kv7.1:KCNE1) cRNA ratio. For Nav1.5 channel expression, we injected a 2:1, weight:weight (Nav1.5:β1) cRNA ratio. For Cav1.2 channel expression, we injected a 2:1:1, weight:weight (Cav1.2:β3:α2δ) cRNA ratio. The exact stoichiometry for channel macromolecular complexes, including α -subunits and auxiliary subunits is not clear for many ion channels. For example, there have been multiple reported stoichiometries for Kv7.1:KCNE1 determined in heterologous expression systems with some groups reporting flexible stoichiometry of 4 Kv7.1: 1–4 KCNE1 and others reporting a fixed stoichiometry of 4 Kv7.1: 2 KCNE1 ([Murray et al., 2016]; [Nakajo et al., 2010]). The ratios of cRNA of α- and auxiliary subunits that we injected in Xenopus laevis oocytes are such that all α-subunits are assumed to be in complex with auxiliary subunits. This allows a more homogenous population of ion channels with auxiliary subunits. One caveat to expressing ion channels as macromolecular complexes is that there are many other auxiliary subunits that could associate with the channel α -subunit that are present in cardiomyocytes and have the potential to alter PUFA-induced effects, but that are not being co-expressed in our experiments. In this work, we are co-expressing some of the auxiliary subunits that have been primarily reported to associate with their respective α -subunits in cardiomyocytes. Following cRNA injection, cells were incubated for 72–96 hr in standard ND96 solution (96 mM NaCl, 2 mM KCl, 1 mM MgCl2, 1.8 mM CaCl2, 5 mM HEPES; pH = 7.5) containing 1 mM pyruvate at 16°C prior to electrophysiological recordings.
# (§2) Xenopus laevis oocytes were recorded in the two-electrode voltage clamp (TEVC) configuration. Recording pipettes were filled with 3 M KCl. The recording chamber was filled with ND96 (96 mM NaCl, 2 mM KCl, 1 mM MgCl2, 1.8 mM CaCl2, 5 mM HEPES; pH 7.5). For Cav1.2/β3/α2δ channel recordings, Xenopus oocytes were injected with 50 nl of 100 mM EGTA and incubated at 10°C for 30 min prior to electrophysiological recordings in order to sequester cytosolic calcium. In addition, Cav1.2/β3/α2δ channel recordings were done in Ca^2+-free solutions, using Ba^2+ as the charge carrier, to prevent calcium-dependent inactivation of Cav1.2/β3/α2δ channels. Calcium-dependent inactivation was not studied in this work, due to the presence of large calcium-activated chloride currents present in Xenopus laevis oocytes. PUFAs were obtained from Cayman Chemical (Ann Arbor, MI.) or synthesized in house (Linköping, Sweden) through methods previously described ([Bohannon et al., 2020]) and kept at −20 °C as 100 mM stock solutions in ethanol. Serial dilutions of the different PUFAs were prepared from stocks to make 0.2 μM, 0.7 μM, 2 μM, 7 μM, and 20 μM concentrations in ND96 solutions (pH = 7.5). PUFAs were perfused into the recording chamber using the Rainin Dynamax Peristaltic Pump (Model RP-1) (Rainin Instrument Co., Oakland, CA. USA).
# (§3) Electrophysiological recordings were obtained using Clampex 10.3 software (Axon, pClamp, Molecular Devices). To measure Kv7.1/KCNE1 currents we apply PUFAs as the membrane potential is stepped every 30 s from −80 mV to 0 mV for 5 s before stepping to −40 mV and back to −80 mV to ensure that the PUFA effects on the current at 0 mV reached steady state. A voltage-step protocol was used to measure the current vs. voltage (I-V) relationship before PUFA application and after the PUFA effects had reached steady state for each concentration of PUFA. […]
# Kv7.1/KCNE1 = molecular target: T2, Kv7.1/KCNE1 (Homo sapiens, UniProt P51787); test: Two-electrode voltage clamp of Kv7.1/KCNE1 expressed in Xenopus oocytes; parameters: Fitted slope factor of conductance vs voltage relationship: unit of the concentration uncertain; details: for IKs I/I0: relative current at 0 mV
# T2 construct: cRNA encoding Kv7.1 (UniProt: P51787), KCNE1 (UniProt: P15382.1); expressed in transfected cells; host or cells: Xenopus laevis oocytes (cRNA injection, Kv7.1:KCNE1 3:1 by weight)
# Method: as §1
# as §2, with “Serial dilutions of the different PUFAs were prepared from stocks to make 0.2 μM, 0.7 μM, 2 μM, 7 μM, and 20 μM concentrations in ND96 solutions (pH = 7.5).” left out
# as §3, with “PUFA. Cells were held at −80 mV followed by a hyperpolarizing prepulse to −140 mV.” for “PUFA.”
# Cav1.2/β3/α2δ = molecular target: T3, Cav1.2/β3/α2δ (Homo sapiens, UniProt Q13936); test: Two-electrode voltage clamp of Cav1.2/β3/α2δ expressed in Xenopus oocytes (Ba2+ as charge carrier); details: for ICa I/I0: relative current at 0 mV
# T3 construct: expressed in transfected cells; host or cells: Xenopus laevis oocytes (cRNA injection, Cav1.2:β3:α2δ 2:1:1 by weight)
# Method: as §1, §2, §3
smiles,measurement,setting,value
CC/C=C\C/C=C\C/C=C\C/C=C\C/C=C\C/C=C\CCC(=O)NCCS(=O)(=O)O [DHA-taurine],Gmax/Gmax0,Nav1.5/β1; 0.2 μM,1.0 ± 0.01
same,ΔV0.5 (voltage dependence of inactivation),Nav1.5/β1; 0.2 μM,-0.5 ± 0.3 mV
same,INa I/I0,Nav1.5/β1; 0.2 μM,1.0 ± 0.03
same,Gmax/Gmax0,Nav1.5/β1; 0.7 μM,0.9 ± 0.01
same,ΔV0.5 (voltage dependence of inactivation),Nav1.5/β1; 0.7 μM,-2.6 ± 0.5 mV
same,INa I/I0,Nav1.5/β1; 0.7 μM,1.0 ± 0.03
same,Gmax/Gmax0,Nav1.5/β1; 2 μM,0.6 ± 0.03
same,ΔV0.5 (voltage dependence of inactivation),Nav1.5/β1; 2 μM,-9.4 ± 1.6 mV
same,INa I/I0,Nav1.5/β1; 2 μM,0.7 ± 0.04
same,Gmax/Gmax0,Nav1.5/β1; 7 μM,0.1 ± 0.01
same,ΔV0.5 (voltage dependence of inactivation),Nav1.5/β1; 7 μM,−28.5 ± 0.6 mV
same,Gmax/Gmax0,Nav1.5/β1; 20 μM,0.04 ± 0.01
same,ΔV0.5 (voltage dependence of inactivation),Nav1.5/β1; 20 μM,-63.2 ± 10.9 mV
same,INa I/I0,Nav1.5/β1; 20 μM,0.1 ± 0.03
same,Fitted slope factor of conductance vs voltage relationship,Kv7.1/KCNE1; 0.2 μM,18.7 ± 1.1 mV
same,Gmax/Gmax0,Kv7.1/KCNE1; 0.2 μM,1.1 ± 0.04
same,ΔV0.5 (voltage dependence of activation),Kv7.1/KCNE1; 0.2 μM,-1.5 ± 0.4 mV
same,IKs I/I0,Kv7.1/KCNE1; 0.2 μM,1.1 ± 0.03
same,Fitted slope factor of conductance vs voltage relationship,Kv7.1/KCNE1; 0.7 μM,18.6 ± 1.2 mV
same,Gmax/Gmax0,Kv7.1/KCNE1; 0.7 μM,1.3 ± 0.1
same,ΔV0.5 (voltage dependence of activation),Kv7.1/KCNE1; 0.7 μM,-5.0 ± 1.7 mV
same,IKs I/I0,Kv7.1/KCNE1; 0.7 μM,1.4 ± 0.08
same,Fitted slope factor of conductance vs voltage relationship,Kv7.1/KCNE1; 2 μM,18.6 ± 1.3 mV
same,Gmax/Gmax0,Kv7.1/KCNE1; 2 μM,1.6 ± 0.2
same,ΔV0.5 (voltage dependence of activation),Kv7.1/KCNE1; 2 μM,-17.5 ± 2.0 mV
same,IKs I/I0,Kv7.1/KCNE1; 2 μM,2.9 ± 0.5
same,Fitted slope factor of conductance vs voltage relationship,Kv7.1/KCNE1; 7 μM,18.1 ± 1.2 mV
same,Gmax/Gmax0,Kv7.1/KCNE1; 7 μM,1.7 ± 0.1
same,ΔV0.5 (voltage dependence of activation),Kv7.1/KCNE1; 7 μM,−45.3 ± 2.9 mV
same,Gmax/Gmax0,Kv7.1/KCNE1; 20 μM,1.1 ± 0.9
same,ΔV0.5 (voltage dependence of activation),Kv7.1/KCNE1; 20 μM,-70.5 ± 6.0 mV
same,IKs I/I0,Kv7.1/KCNE1; 20 μM,3.1 ± 0.4
same,Gmax/Gmax0,Cav1.2/β3/α2δ; 0.2 μM,1.0 ± 0.05
same,ΔV0.5 (voltage dependence of inactivation),Cav1.2/β3/α2δ; 0.2 μM,1.7 ± 0.7 mV
same,ICa I/I0,Cav1.2/β3/α2δ; 0.2 μM,0.9 ± 0.04
same,Gmax/Gmax0,Cav1.2/β3/α2δ; 0.7 μM,1.1 ± 0.1
same,ΔV0.5 (voltage dependence of inactivation),Cav1.2/β3/α2δ; 0.7 μM,1.6 ± 0.8 mV
same,ICa I/I0,Cav1.2/β3/α2δ; 0.7 μM,1.0 ± 0.03
same,Gmax/Gmax0,Cav1.2/β3/α2δ; 2 μM,1.1 ± 0.07
same,ΔV0.5 (voltage dependence of inactivation),Cav1.2/β3/α2δ; 2 μM,1.7 ± 1.0 mV
same,ICa I/I0,Cav1.2/β3/α2δ; 2 μM,1.0 ± 0.03
same,Gmax/Gmax0,Cav1.2/β3/α2δ; 7 μM,1.1 ± 0.1
same,ΔV0.5 (voltage dependence of inactivation),Cav1.2/β3/α2δ; 7 μM,0.2 ± 0.8 mV
same,Gmax/Gmax0,Cav1.2/β3/α2δ; 20 μM,0.8 ± 0.1
same,ΔV0.5 (voltage dependence of inactivation),Cav1.2/β3/α2δ; 20 μM,-3.8 ± 0.9 mV
same,ICa I/I0,Cav1.2/β3/α2δ; 20 μM,0.7 ± 0.1
